Measured values from the OPERA property sets (Mansouri et al. 2018).
Converted amounts (≈) assume the structure as drawn.

Row | SMILES | logP | solubility (20 °C) [µM] | also measured
1 | CCCCOC(=O)C(C)Oc1ccc(Oc2ccc(C(F)(F)F)cn2)cc1 (configuration not stated) | 4.5 |  | solubility (pH 6.5, 23 °C): 3.1 µM (≈ 1.19 µg/mL)
2 | N#Cc1c[nH]cc1-c1cccc2c1OC(F)(F)O2 | 4.12 |  | 
3 | CCCSP(=O)(OCC)Oc1cnn(-c2ccc(Cl)cc2)c1 (configuration not stated) |  | 91.5 (≈ 33 µg/mL) | 
4 | CCOP(=S)(NC(C)CC)Oc1cc(C)ccc1[N+](=O)[O-] (configuration not stated) | 4.62 |  | solubility (25 °C): 16.9 µM (≈ 5.62 µg/mL)
5 | CCOc1cc(Oc2ccc(C(F)(F)F)cc2Cl)ccc1[N+](=O)[O-] |  |  | solubility (25 °C): 0.298 µM (≈ 0.108 µg/mL)
6 | CCCN(CCC)C(=O)SCc1ccccc1 | 4.65 | 52.5 (≈ 13.2 µg/mL) | 
7 | CC(C)C1CCC(Cc2ccc(Cl)cc2)C1(O)Cn1cncn1 (configuration not stated) | 4.21 |  | 
8 | CNC(=O)O/N=C(\C)C(C)S(C)(=O)=O (configuration not stated) |  | 940000 (≈ 209000 µg/mL) | 
9 | CC(C)(C)c1ccc(CCOc2ncnc3ccccc23)cc1 | 5.51 | 0.718 (≈ 0.22 µg/mL) | 
10 | CCCCCCCCSCCO | 3.64 |  | 
11 | CCOC(=O)Cc1[nH]nc2ccc(Cl)cc12 |  |  | solubility (24 °C): 943 µM (≈ 225 µg/mL)
12 | CC(C)c1ccc(NC(=O)N(C)C)cc1 |  |  | solubility (22 °C): 291 µM (≈ 60 µg/mL)
13 | CCOC(=O)CCCOc1ccc(Cl)cc1C | 4.26 |  | 
